# Values quoted from earlier work in patent US6486128B1, “Method of using emamectin to treat fish parasites” (Schering-Plough Veterinary Corporation, priority 1999, dated 2002).
# Key:
# [1] = orally administered; cited from earlier work
# [2] = system: sea lice; settings: commonly adopted dose rate of 25 μg kg^−1 biomass twice weekly; cited from earlier work
substance,measurement,setting,value
"22,23-dihydroavermectin B1 [ivermectin]",levels found to be toxic,[1],greater than 25 μg kg^−1 biomass twice weekly
same,control of sea lice,[2],some control
